What was measured:
[1] = system: human non-small cell lung cancer cells (A549); experiment: MTT antiproliferative assay, A549; format: cell-based; settings: for inhibition at 10 µM: A549, 10 μM, read-out: Inhibition rate, A549; for IC50: A549, 48 h, MTT assay, 48 h, read-out: In vitro cytotoxicity IC50, A549
Procedure: (§1) A549, PC-3, HepG2 and K562 cells were purchased from the Kunming cell bank of the Chinese academy of sciences. All cell lines were cultured in DMEM or RPMI 1640 complete medium. Logarithmic growth cells were cultured in 96-well plates at a concentration of 10^4 cells per well and pre-cultured for 24 h before adding test compounds. The MTT test with 5-Fluorouracil and Gefitinib as reference compounds were used to evaluate antiproliferative activity of target compounds in four human cancer line cells. For the estimation of the inhibition concentration (IC50), the Graph Pad Prism (GraphPad Software, San Diego, CA) was used.

[2] = system: human prostate cancer cells (PC-3); experiment: MTT antiproliferative assay, PC-3; format: cell-based; settings: Homo sapiens; for IC50: 48 h, MTT assay, read-out: In vitro cytotoxicity IC50, PC-3; for inhibition at 10 µM: read-out: Inhibition rate, PC-3
Procedure: as §1

[3] = system: human liver cancer cells (HepG2); experiment: MTT antiproliferative assay, HepG2; format: cell-based; settings: for inhibition at 10 µM: read-out: Inhibition rate, HepG2; for IC50: MTT assay, 48 h, read-out: In vitro cytotoxicity IC50, HepG2
Procedure: as §1

[4] = system: human chronic myeloid leukaemia cells (K562); experiment: MTT antiproliferative assay, K562; format: cell-based; settings: for inhibition at 10 µM: K562, 10 μM, read-out: Inhibition rate, K562; for IC50: K562, 48 h, MTT assay, 48 h, read-out: In vitro cytotoxicity IC50, K562
Procedure: as §1

[5] = MTT cytotoxicity, normal cell line HEK293; format: cell-based, human; settings: human, HEK293 cells (normal cell line); MTT assay, 48 h; normal cell line; CC50; read-out: In vitro cytotoxicity IC50, HEK293
[6] = system: normal cell line (HEK293); experiment: MTT cytotoxicity, normal cell line HEK293; format: cell-based, human; settings: Homo sapiens, HEK293; 10 μM; read-out: Inhibition rate, HEK293
[7] = system: A549 cells; experiment: Annexin V-FITC/PI apoptosis flow cytometry, A549; format: cell-based, human; settings: 4 µM, 48 h
Procedure: (§2) Annexin-V/FITC assay, after the adherent cells grew stably in the 6-well plate, each group was reacted with different concentrations of compound solutions for 48 h. Then, cells were collected by trypsinization without EDTA, rinsed twice with PBS, followed by the Annexin V-FITC/PI apoptosis detection kit (Solarbio, Bei Jing, China) according to the kit instructions, flow cytometry by BD FACSCalibur instrument (American BD Company Shanghai Co., Ltd.).

[8] = system: K562 cells; experiment: Annexin V-FITC/PI apoptosis flow cytometry, K562; format: cell-based, human; parameters: total numbers of apoptotic cells, K562: dose or concentration left out as unconfirmed; settings: 48 h
Procedure: as §2

[9] = system: A549 cells; experiment: Cell cycle analysis (PI staining, flow cytometry), A549; format: cell-based, human; settings: 4 µM, 48 h
Procedure: (§3) A549 or K562 cells were separately seeded at 4.0 × 10^5cells/well in six-well plates and incubated for 24 h until adherent. […] After treatment, the cells were collected, and washed twice with pre-cooled PBS and then fixed with ice-cold ethanol (70%), subsequently kept 4 °C for overnight. After washing twice with PBS, cells were incubated at 37 °C with 100 µ L RNase A for 30 min. After this, cells were incubated with 400 µL PI for 30 min at 4 °C. Finally, the cell cycle distribution of compound 10 b was analysed via the BD FACSCalibur flow cytometry (American BD Corporation Shanghai Co. Ltd.)

[10] = system: K562 cells; experiment: Cell cycle analysis (PI staining, flow cytometry), K562; format: cell-based, human; settings: 4 µM, 48 h
Procedure: as §3

[11] = system: A549, PC-3, HepG2 and K562 cells; experiment: MTT antiproliferative assay, four cancer cell lines taken together; format: cell-based, human
Procedure: as §1

| Compound | inhibition at 10 µM [1] [%] | IC50 [1] [µM] | IC50 [2] [µM] | inhibition at 10 µM [2] [%] | inhibition at 10 µM [3] [%] | IC50 [3] [µM] | inhibition at 10 µM [4] [%] | IC50 [4] [µM] | IC50 at 48 h [5] [µM] | inhibition at 10 µM [6] [%] | total numbers of apoptotic cells, A549 [7] [%] | total numbers of apoptotic cells, K562 [8] [%] | DNA contents of the live population, G0/G1 phase, A549 [9] [%] | DNA contents of the live population, G2/M phase, A549 [9] [%] | DNA contents of the live population, S phase, A549 [9] [%] | DNA contents of the live population, G0/G1 phase, K562 [10] [%] | DNA contents of the live population, G2/M phase, K562 [10] [%] | DNA contents of the live population, S phase, K562 [10] [%] | antiproliferative activity in words [11] | melting point [°C] |
| --- | --- | --- | --- | --- | --- | --- | --- | --- | --- | --- | --- | --- | --- | --- | --- | --- | --- | --- | --- | --- |
| O=c1[nH]cc(F)c(=O)[nH]1 [5-Fluorouracil, reference compound] | 54.3 ± 1.07 | 3.46 ± 0.45 | 10.9 ± 3.4 | 37 ± 6.18 | 26.4 ± 0.513 | 15 ± 3.87 | 39.9 ± 6.44 | 12.3 ± 2.5 | 3.62 ± 0.25 | 72.1 ± 3.71 | 28.3 | 13.4 | 46.87 | 13.13 | 34.63 | 30.93 | 16.07 | 48.27 |  |  |
| O=C(CSc1nnc(-c2ccccc2Br)s1)Nc1cc(-c2c[nH]c3ccccc23)n[nH]1 [Compound 10c, N-(3-(1H-indol-3-yl)-1H-pyrazol-5-yl)-2-((5–(2-bromophenyl)-1,3,4-thiadiazol-2-yl)thio)acetamide] | 24.3 ± 2.77 | 18.8 ± 2.92 | 31.9 ± 18 | 30.3 ± 12.6 | 11.9 ± 2.21 | 61.3 ± 17 | 27.1 ± 1.87 | 33.7 ± 3.54 | 63.7 ± 6.51 | 33 ± 1.46 |  |  |  |  |  |  |  |  | quite weak antiproliferative activity |  |
| O=C(CSc1nnc(-c2ccccc2F)s1)Nc1cc(-c2c[nH]c3ccccc23)n[nH]1 [Compound 10g, N-(3-(1H-indol-3-yl)-1H-pyrazol-5-yl)-2-((5-(2-fluorophenyl)-1,3,4-thiadiazol-2-yl)thio)acetamide] | 55.2 ± 3.17 | 14.2 ± 1.61 | 2.98 ± 0.28 | 96.4 ± 2.21 | 56.9 ± 9.69 | 11.8 ± 2.02 | 97.4 ± 0.838 | 3.32 ± 0.09 | 10.1 ± 2.2 | 68.1 ± 4.49 |  |  |  |  |  |  |  |  | quite weak antiproliferative activity |  |
| Nn1c(SCC(=O)Nc2cc(-c3c[nH]c4ccccc34)n[nH]2)nnc1-c1ccccn1 [Compound 11i, N-(3-(1H-indol-3-yl)-1H-pyrazol-5-yl)-2-((4-amino-5-(pyridine-2-yl)-4H-1,2,4-triazol-3-yl)thio)acetamide] | 94.8 ± 1.91 | 2.97 ± 0.83 | 2.77 ± 0.91 | 83.6 ± 5.66 | 95.3 ± 3.04 | 2.5 ± 1.44 | 99.5 ± 0.155 | 1.26 ± 0.24 | 1.45 ± 0.22 | 67.1 ± 2.18 |  |  |  |  |  |  |  |  |  | 208 to 210 |
| Nn1c(SCC(=O)Nc2cc(-c3c[nH]c4ccccc34)n[nH]2)nnc1-c1ccccc1Cl [Compound 11j, N-(3-(1H-indol-3-yl)-1H-pyrazol-5-yl)-2-((4-amino-5–(2-chlorophenyl)-4H-1,2,4-triazol-3-yl)thio)acetamide] | 13.7 ± 1.49 | 56.8 ± 5.27 | 34.4 ± 2.57 | 17.8 ± 2.85 | 14.4 ± 0.686 | 50.6 ± 4.69 | 14.3 ± 0.525 | 42.4 ± 3.6 | 63 ± 0.87 | 10.9 ± 7.59 |  |  |  |  |  |  |  |  |  | 136 to 138 |
| Nn1c(SCC(=O)Nc2cc(-c3c[nH]c4ccccc34)n[nH]2)nnc1-c1ccccc1 [Compound 11k, N-(3-(1H-indol-3-yl)-1H-pyrazol-5-yl)-2-((4-amino-5-phenyl-4H-1,2,4-triazol-3-yl)thio)acetamide] | 23.2 ± 0.539 | 23.9 ± 3.08 | 25.4 ± 2.77 | 23.1 ± 3.99 | 11.1 ± 0.757 | 73.1 ± 8.07 | 19.2 ± 3.55 | 39.7 ± 7.96 | 23.6 ± 4.14 | 0.497 ± 5.03 |  |  |  |  |  |  |  |  |  | > 300 |

Reference: publication PMC9848270, “Synthesis and biological assessment of indole derivatives containing penta-heterocycles scaffold as novel anticancer agents towards A549 and K562 cells” (Journal of Enzyme Inhibition and Medicinal Chemistry, 2023)
